The test system of experiment [1] is diamondback moth (Plutella xylostella). Put plainly: Diamondback moth mortality test on sprayed cabbage (Test Example 15). The class given is in vivo. The settings on record: 120 h, 20 mL/cup sprayed on cabbage, second-instar larvae, 25° C., after 5 days. How it is done:
Each of formulations of the present compounds 6, 9, 26, 28, 31, 32, 33, 36, 71, 109, 114, 115, 125, and 149 obtained in Formulation Example 6 was diluted with water so that the concentration of the active ingredient is controlled to 500 ppm to prepare a test spraying solution. Meanwhile, the above test chemical solution was sprayed over three-leaf stage cabbage sowed in a polyethylene cup in the proportion of 20 mL/cup. After drying the chemical solution, stem and leaf portions were cut off and put in a 50 mL cup and five second-instar larvae of diamondback moth (Plutella xylostella) were released, and then the cup was capped. The cup was stored at 25° C. and, after 5 days, the number of surviving worms was counted and mortality was determined by the following equation. Mortality (%)=[(Number of dead insects)/(Number of tested insects)]×100

The subject of experiment [2] is cucumber powdery mildew fungus (Sphaerotheca fuliginea). Put plainly: Cucumber powdery mildew control test, foliar spray on cucumber (Test Examples 6, 12, Comparative Test Example). In kind it is in vivo. The settings on record: 200 ppm, cucumber (SAGAMI HANJIRO), 8 days after inoculation.

Bounds are passed on as bounds.

As to `CC(=NOCc1c(C2CC2)cccc1-n1nnn(C)c1=O)c1cccc2c1CCC2` [present compound 125, 1-[3-cyclopropyl-2-(1-indan-4-ylethylideneaminooxymethyl)phenyl]-4-methyl-1,4-dihydrotetrazol-5-one], in experiment [1], the mortality at 500 ppm is not below 80%.

Compound `CC(=NOCc1c(C)cccc1-n1nnn(C)c1=O)c1cccc(Cl)c1` [present compound 31, 1-{3-methyl-2-[1-(3-chlorophenyl)ethylideneaminooxymethyl]phenyl}-4-methyl-1,4-dihydrotetrazol-5-one] registered a mortality at 500 ppm in experiment [1] not below 80%.

In turn, `CC(=NOCc1c(C)cccc1-n1nnn(C)c1=O)c1cccc(C)c1` [present compound 71, 1-{3-methyl-2-[1-(3-methylphenyl)ethylideneaminooxymethyl]phenyl}-4-methyl-1,4-dihydrotetrazol-5-one] came in with a mortality at 500 ppm in experiment [1] not below 80%.

`CC(=NOCc1c(Cl)cccc1-n1nnn(C)c1=O)c1cc(F)cc(F)c1` [present compound 28, 1-{3-chloro-2-[1-(3,5-difluorophenyl)ethylideneaminooxymethyl]phenyl}-4-methyl-1,4-dihydrotetrazol-5-one] gave a mortality at 500 ppm in experiment [1] not below 80%.

For `CC(=NOCc1c(C)cccc1-n1nnn(C)c1=O)c1cccc(C(F)(F)F)c1` [1-{3-methyl-2-[1-(3-trifluoromethylphenyl)ethylideneaminooxymethyl]phenyl}-4-methyl-1,4-dihydrotetrazol-5-one], the “area of lesion spots relative to that on an untreated plant” value in experiment [2] is given as not above 30%.

In turn, `CC(=NOCc1c(Cl)cccc1-n1nnn(C)c1=O)c1cccc(OC(F)(F)C(F)F)c1` [present compound 9, 1-(3-chloro-2-{1-[3-(1,1,2,2-tetrafluoroethoxyl)phenyl]ethylideneaminooxymethyl]phenyl}-4-methyl-1,4-dihydrotetrazol-5-one] showed a mortality at 500 ppm in experiment [1] not below 80%.

In the case of `CC(=NOCc1cccc(C)c1-n1nnn(C)c1=O)c1cccc(C(F)(F)F)c1` [1-methyl-4-{2-methyl-6-[1-(3-trifluoromethylphenyl)ethylideneaminooxymethyl]phenyl}-1,4-dihydrotetrazol-5-one], the “area of lesion spots relative to that on an untreated plant” value in experiment [2] is not below 70%.

Take `CC(=NOCc1c(C)cccc1-n1nnn(C)c1=O)c1cccc(OC(F)(F)F)c1` [present compound 32, 1-{3-methyl-2-[1-(3-trifluoromethoxyphenyl)ethylideneaminooxymethyl]phenyl}-4-methyl-1,4-dihydrotetrazol-5-one]: the mortality at 500 ppm in experiment [1] is not below 80%.

For `CC(=NOCc1c(-n2nnn(C)c2=O)cccc1C(F)(F)F)c1ccc2c(c1)CCC2` [present compound 115, 1-[2-(1-indan-5-ylethylideneaminooxymethyl)-3-trifluoromethylphenyl]-4-methyl-1,4-dihydrotetrazol-5-one], the mortality at 500 ppm in experiment [1] is not below 80%.

Compound `CC(=NOCc1c(Cl)cccc1-n1nnn(C)c1=O)c1cccc([N+](=O)[O-])c1` [present compound 6, 1-{3-chloro-2-[1-(3-nitrophenyl)ethylideneaminooxymethyl]phenyl}-4-methyl-1,4-dihydrotetrazol-5-one] showed a mortality at 500 ppm in experiment [1] not below 80%.

In experiment [1], `CC(=NOCc1c(-n2nnn(C)c2=O)cccc1C(F)(F)F)c1cccc(OC(F)(F)F)c1` [present compound 114, 1-{2-[1-(3-trifluoromethoxyphenyl)ethylideneaminooxymethyl]-3-trifluoromethylphenyl}-4-methyl-1,4-dihydrotetrazol-5-one] yielded a mortality at 500 ppm not below 80%.

In experiment [1], `CC(=NOCc1c(C)cccc1-n1nnn(C)c1=O)c1ccc2ccccc2c1` [present compound 36, 1-[3-methyl-2-(1-naphthalen-2-ylethylideneaminooxymethyl)phenyl]-4-methyl-1,4-dihydrotetrazol-5-one] gave a mortality at 500 ppm not below 80%.

As for `CC(=NOCc1c(C)cccc1-n1nnn(C)c1=O)c1cccc(N(C)C)c1` [present compound 109, 1-{2-[1-(3-dimethylaminophenyl)ethylideneaminooxymethyl]-3-methylphenyl}-4-methyl-1,4-dihydrotetrazol-5-one], the mortality at 500 ppm in experiment [1] is not below 80%.

For the compound `Cn1nnn(-c2cccc(Cl)c2CON=C(c2ccccc2)C(F)(F)F)c1=O` [present compound 26, 1-[3-chloro-2-(2,2,2-trifluoro-1-phenylethylideneaminooxymethyl)phenyl]-4-methyl-1,4-dihydrotetrazol-5-one], the mortality at 500 ppm in experiment [1] is not below 80%.

In experiment [1], `CC(=NOCc1c(C)cccc1-n1nnn(C)c1=O)c1ccccc1` [present compound 149, 1-[2-(1-phenylethylideneaminooxymethyl)-3-methylphenyl]-4-methyl-1,4-dihydrotetrazol-5-one] had a mortality at 500 ppm not below 80%.

With `CC(=NOCc1c(C)cccc1-n1nnn(C)c1=O)c1cccc(OC(F)(F)C(F)F)c1` [present compound 33, 1-(3-methyl-2-{1-[3-(1,1,2,2-tetrafluoroethoxyl)phenyl]ethylideneaminooxymethyl}phenyl)-4-methyl-1,4-dihydrotetrazol-5-one], in experiment [1], the mortality at 500 ppm was not below 80%.

The values are drawn from patent publication US9725423B2, “Tetrazolinone compound and applications thereof” (SUMITOMO CHEMICAL COMPANY, LIMITED, priority 2012, dated 2017).
